Active and inactive are the calls of the source. The calls are words filed in the database; no cut-off is given here.
Tests used:
Dihydrofolate reductase = biological target: T1, Dihydrofolate reductase (Mycobacterium tuberculosis, UniProt P9WNX1); assay: Inhibition of recombinant Mycobacterium tuberculosis DHFR expressed in Escherichia coli BL21(DE3) cells using DHF as substrate and NADPH as cofactor by fluorimetric analysis
T1 sequence (P9WNX1 whole entry): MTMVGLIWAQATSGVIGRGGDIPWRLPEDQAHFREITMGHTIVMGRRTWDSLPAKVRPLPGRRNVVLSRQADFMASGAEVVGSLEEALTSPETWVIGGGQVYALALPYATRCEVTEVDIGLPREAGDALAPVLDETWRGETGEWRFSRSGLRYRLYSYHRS

[1] = biological target: T2, Dihydrofolate reductase (Mycobacterium tuberculosis) (UniProt P9WNX1); assay: Potency index, ratio of MB872 IC50 to test compound IC50 for recombinant Mycobacterium tuberculosis DHFR expressed in Escherichia coli BL21(DE3) cells using DHF as substrate and NADPH as cofactor by fluorimetric analysis
T2 sequence (whole entry): T1 sequence (P9WNX1 whole entry)

[2] = biological target: T2, Dihydrofolate reductase (Mycobacterium tuberculosis); assay: Uncompetitive inhibition of Mycobacterium tuberculosis DHFR assessed as constant Km using DHF as substrate and NADPH as cofactor by Michaelis-Menten analysis
[3] = biological target: T2, Dihydrofolate reductase (Mycobacterium tuberculosis); assay: Potency index, ratio of trimethoprim IC50 to test compound IC50 for recombinant Mycobacterium tuberculosis DHFR expressed in Escherichia coli BL21(DE3) cells using DHF as substrate and NADPH as cofactor by fluorimetric analysis
[4] = biological target: T2, Dihydrofolate reductase (Mycobacterium tuberculosis); assay: Uncompetitive inhibition of Mycobacterium tuberculosis DHFR assessed as varying Vmax using DHF as substrate and NADPH as cofactor by Michaelis-Menten analysis

Structure (SMILES)	IC50 (Dihydrofolate reductase)	Ratio IC50 [1]	other results
COc1ccc(OCc2cccc(C(=O)O)c2)cc1	119 µM		
COc1ccc(OCc2ccc(C(=O)O)cc2)cc1	31 µM	19	
c1ccc(OCc2cccc(-c3nnn[nH]3)c2)cc1	454 µM		
COC(=O)c1cccc(COc2ccc(OC)cc2)c1	242 µM		
COC(=O)c1cccc(CSc2ccccc2)c1	76 µM		
O=C(O)c1ccc(COc2ccccc2)cc1	442 µM		
COC(=O)c1ccc(COc2ccccc2)cc1	152 µM		
COC(=O)c1cccc(COc2ccccc2)c1	> 500 µM		
O=C(O)c1cccc(OCc2ccccc2)c1	230 µM		
O=C(O)c1cccc(COc2ccccc2)c1	≥ 500 µM		
O=C(O)c1cccc(CSc2ccccc2)c1	128 µM		
COC(=O)c1ccc(COc2ccc(OC)cc2)cc1	26 µM	16	
COC(=O)c1cccc(COc2ccc([N+](=O)[O-])cc2)c1	35 µM	13 to 21	
O=C(O)c1cccc(-n2cc(COc3ccccc3)nn2)c1	> 500 µM		
O=C(O)c1cccc(COc2ccc(O)cc2)c1	36 µM	13 to 21	
COC(=O)c1cccc(-n2cc(COc3ccccc3)nn2)c1	81 µM		
O=C(O)c1cccc(CNc2ccccc2)c1	7 µM	71	inhibition [2]: Active; Ratio IC50 [3]: 13; inhibition [4]: Active
O=C(O)c1cccc(COc2ccc([N+](=O)[O-])cc2)c1	23 µM	13 to 21	
COC(=O)c1cccc(OCc2ccccc2)c1	> 500 µM		
